Laboratory results as given in ChEMBL document CHEMBL2401728, “An unexpected Dimroth rearrangement leading to annelated thieno[3,2-d][1,2,3]triazolo[1,5-a]pyrimidines with potent antitumor activity” (Eur J Med Chem, 2013).

Key:
Type in all cases: functional
[1] = test system: SK-OV-3; test: Cytotoxicity against human SKOV3 cells assessed as cellular growth at 10 uM after 48 hrs by SRB assay relative to control
[2] = test system: TK-10; test: Cytotoxicity against human TK10 cells assessed as cellular growth at 0.1 uM after 48 hrs by SRB assay relative to control
[3] = test system: NCI-H23; test: Cytotoxicity against human NCI-H23 cells after 48 hrs by SRB assay; conditions: NCI-H23, 48 h
[4] = test system: OVCAR-5; test: Cytotoxicity against human OVCAR5 cells assessed as cellular growth at 0.01 uM after 48 hrs by SRB assay relative to control
[5] = test system: HOP-92; test: Cytotoxicity against human HOP92 cells assessed as cellular growth at 100 uM after 48 hrs by SRB assay relative to control
[6] = test system: HCT-116; test: Cytotoxicity against human HCT116 cells assessed as cellular growth at 1 uM after 48 hrs by SRB assay relative to control
[7] = test system: K562; test: Cytotoxicity against human K562 cells assessed as cellular growth at 100 uM after 48 hrs by SRB assay relative to control
[8] = test system: SK-MEL-28; test: Cytotoxicity against human SK-MEL-28 cells assessed as cellular growth at 1 uM after 48 hrs by SRB assay relative to control
[9] = test system: Hs-578T; test: Cytotoxicity against human Hs578T cells assessed as cellular growth at 0.1 uM after 48 hrs by SRB assay relative to control
[10] = test system: HOP-62; test: Cytotoxicity against human HOP62 cells after 48 hrs by SRB assay; conditions: HOP-62, 48 h
[11] = Cytotoxicity against human EKVX cells assessed as cellular growth at 0.01 uM after 48 hrs by SRB assay relative to control
[12] = test system: U-251; test: Cytotoxicity against human U251 cells assessed as cellular growth at 1 uM after 48 hrs by SRB assay relative to control
[13] = test system: SNB-19; test: Cytotoxicity against human SNB19 cells assessed as cellular growth at 100 uM after 48 hrs by SRB assay relative to control
[14] = test system: BT-549; test: Cytotoxicity against human BT549 cells assessed as cellular growth at 1 uM after 48 hrs by SRB assay relative to control
[15] = test system: KM12; test: Cytotoxicity against human KM12 cells assessed as cellular growth at 100 uM after 48 hrs by SRB assay relative to control
[16] = test system: NCI-H322M; test: Cytotoxicity against human NCI-H322M cells assessed as cellular growth at 100 uM after 48 hrs by SRB assay relative to control
[17] = test system: OVCAR-8; test: Cytotoxicity against human OVCAR8 cells assessed as cellular growth at 1 uM after 48 hrs by SRB assay relative to control
[18] = test system: SK-MEL-5; test: Cytotoxicity against human SK-MEL-5 cells assessed as cellular growth at 1 uM after 48 hrs by SRB assay relative to control
[19] = test system: SK-MEL-5; test: Cytotoxicity against human SK-MEL-5 cells assessed as cellular growth at 100 uM after 48 hrs by SRB assay relative to control
[20] = test system: NCI-H322M; test: Cytotoxicity against human NCI-H322M cells assessed as cellular growth at 0.01 uM after 48 hrs by SRB assay relative to control
[21] = test system: SK-MEL-28; test: Cytotoxicity against human SK-MEL-28 cells after 48 hrs by SRB assay; conditions: SK-MEL-28, 48 h
[22] = test system: TK-10; test: Cytotoxicity against human TK10 cells assessed as cellular growth at 0.01 uM after 48 hrs by SRB assay relative to control
[23] = test system: M14; test: Cytotoxicity against human M14 cells assessed as cellular growth at 100 uM after 48 hrs by SRB assay relative to control
[24] = test system: NCI-H522; test: Cytotoxicity against human NCI-H522 cells assessed as cellular growth at 1 uM after 48 hrs by SRB assay relative to control
[25] = test system: MCF7; test: Cytotoxicity against human MCF7 cells assessed as cellular growth at 0.01 uM after 48 hrs by SRB assay relative to control
[26] = test system: M14; test: Cytotoxicity against human M14 cells assessed as cellular growth at 0.1 uM after 48 hrs by SRB assay relative to control
[27] = test system: HOP-62; test: Cytotoxicity against human HOP62 cells assessed as cellular growth at 1 uM after 48 hrs by SRB assay relative to control
[28] = test system: SW-620; test: Cytotoxicity against human SW620 cells assessed as cellular growth at 0.1 uM after 48 hrs by SRB assay relative to control
[29] = test system: SR; test: Cytotoxicity against human SR cells assessed as cellular growth at 0.1 uM after 48 hrs by SRB assay relative to control
[30] = test system: MDA-MB-468; test: Cytotoxicity against human MDA-MB-468 cells assessed as cellular growth at 100 uM after 48 hrs by SRB assay relative to control
[31] = test system: HOP-92; test: Cytotoxicity against human HOP92 cells after 48 hrs by SRB assay; conditions: HOP-92, 48 h
[32] = test system: Malme-3M; test: Cytotoxicity against human MALME-3M cells assessed as cellular growth at 0.01 uM after 48 hrs by SRB assay relative to control
[33] = test system: 786-0; test: Cytotoxicity against human 786-0 cells assessed as cellular growth at 0.01 uM after 48 hrs by SRB assay relative to control
[34] = test system: SNB-75; test: Cytotoxicity against human SNB75 cells assessed as cellular growth at 100 uM after 48 hrs by SRB assay relative to control
[35] = test system: Malme-3M; test: Cytotoxicity against human MALME-3M cells after 48 hrs by SRB assay
[36] = test system: SK-OV-3; test: Cytotoxicity against human SKOV3 cells after 48 hrs by SRB assay; conditions: SK-OV-3, 48 h
[37] = test system: IGROV-1; test: Cytotoxicity against human IGROV1 cells at 10 uM after 48 hrs by SRB assay
[38] = test system: OVCAR-8; test: Cytotoxicity against human OVCAR8 cells assessed as cellular growth at 0.1 uM after 48 hrs by SRB assay relative to control
[39] = read-out: LC50 (the source's name)
[40] = read-out: pLC50 (the source's name) (converted)

With O=C(O)CCCn1c2c(sc3ccccc32)c(=O)n2nnc(-c3ccccc3)c12 the Activity [1] was 90.82%.

CN1CCN(CCCn2c3c(sc4ncccc43)c(=O)n3nnc(-c4ccccc4)c23)CC1 gave an Activity [2] of 99%, a GI50 ([3]; read-out: GI50) of 2.14 µM and a CC50 [3, 39] of 33.7 µM. For the same molecule, the TGI ([3]; read-out: TGI) was 5.07 µM, the GI50 ([3]; read-out: pGI50 (converted)) was 2.14 µM and the CC50 [3, 40] was 33.9 µM. It also gave a TGI ([3]; read-out: pTGI (converted)) of 5.13 µM, an Activity [4] of 105% and an Activity [5] of -67%. The Activity [6] was 88%, the Activity [7] was -29% and the Activity [8] was 99%. It also gave an Activity [9] of 93%, a GI50 ([10]; read-out: GI50) of 1.78 µM and a CC50 [10, 39] of 6.11 µM. It also gave a TGI ([10]; read-out: TGI) of 3.3 µM, a GI50 ([10]; read-out: pGI50 (converted)) of 1.78 µM and a CC50 [10, 40] of 6.17 µM. For the same molecule, the TGI ([10]; read-out: pTGI (converted)) was 3.31 µM, the Activity [11] was 98% and the Activity [12] was 98%. It also gave an Activity [13] of -42%, an Activity [14] of 97% and an Activity [15] of -83%. The Activity [16] was -92%, the Activity [17] was 89% and the Activity [18] was 93%. For the same molecule, the Activity [19] was -96%, the Activity [20] was 97% and the GI50 ([21]; read-out: GI50) was 15.8 µM. For the same molecule, the CC50 [21, 39] was 55.5 µM, the TGI ([21]; read-out: TGI) was 29.6 µM and the GI50 ([21]; read-out: pGI50 (converted)) was 15.8 µM. The CC50 [21, 40] was 55 µM, the TGI ([21]; read-out: pTGI (converted)) was 29.5 µM and the Activity [22] was 105%. The Activity [23] was -67%, the Activity [24] was 99% and the Activity [25] was 91%. It also gave an Activity [26] of 94%, an Activity [27] of 97% and an Activity [28] of 89%. It also gave an Activity [29] of 104%, an Activity [30] of -91% and a GI50 ([31]; read-out: GI50) of 6.31 µM. For the same molecule, the CC50 [31, 39] was 70.1 µM, the TGI ([31]; read-out: TGI) was 24.3 µM and the GI50 ([31]; read-out: pGI50 (converted)) was 6.31 µM. It also gave a CC50 [31, 40] of 70.8 µM, a TGI ([31]; read-out: pTGI (converted)) of 24.5 µM and an Activity [32] of 83%. For the same molecule, the Activity [33] was 103%, the Activity [34] was -94% and the GI50 ([35]; read-out: GI50) was 1.97 µM. For the same molecule, the CC50 [35, 39] was 6.72 µM, the TGI ([35]; read-out: TGI) was 3.64 µM and the GI50 ([35]; read-out: pGI50 (converted)) was 1.95 µM. It also gave a CC50 [35, 40] of 6.76 µM, a TGI ([35]; read-out: pTGI (converted)) of 3.63 µM and a GI50 ([36]; read-out: GI50) of 18.7 µM. For the same molecule, the CC50 [36, 39] was 59.6 µM, the TGI ([36]; read-out: TGI) was 33.4 µM and the GI50 ([36]; read-out: pGI50 (converted)) was 18.6 µM. The CC50 [36, 40] was 60.3 µM, the TGI ([36]; read-out: pTGI (converted)) was 33.1 µM and the Activity [37] was -51%. It also gave an Activity [38] of 94%.

O=C(CCCn1c2c(sc3ccccc32)c(=O)n2nnc(-c3ccccc3)c12)NCCc1c[nH]cn1 showed an Activity [2] of 93%, a GI50 ([3]; read-out: GI50) of 1.34 µM and a TGI ([3]; read-out: TGI) of 3.52 µM. For the same molecule, the GI50 ([3]; read-out: pGI50 (converted)) was 1.35 µM, the TGI ([3]; read-out: pTGI (converted)) was 3.55 µM and the Activity [4] was 94%. For the same molecule, the Activity [5] was -50%, the Activity [6] was -27% and the Activity [7] was -100%. It also gave an Activity [8] of 92%, an Activity [9] of 91% and a GI50 ([10]; read-out: GI50) of 1.31 µM. For the same molecule, the CC50 [10, 39] was 6.32 µM, the TGI ([10]; read-out: TGI) was 2.87 µM and the GI50 ([10]; read-out: pGI50 (converted)) was 1.32 µM. The CC50 [10, 40] was 6.31 µM, the TGI ([10]; read-out: pTGI (converted)) was 2.88 µM and the Activity [1] was -6%. For the same molecule, the Activity [11] was 104%, the Activity [12] was 36% and the Activity [13] was -84%. The Activity [14] was 100%, the Activity [15] was -100% and the Activity [16] was -84%. It also gave an Activity [17] of 32%, an Activity [18] of 70% and an Activity [19] of -100%. The Activity [20] was 104%, the GI50 ([21]; read-out: GI50) was 1.69 µM and the CC50 [21, 39] was 5.91 µM. The TGI ([21]; read-out: TGI) was 3.17 µM, the GI50 ([21]; read-out: pGI50 (converted)) was 1.7 µM and the CC50 [21, 40] was 5.89 µM. The TGI ([21]; read-out: pTGI (converted)) was 3.16 µM, the Activity [22] was 96% and the Activity [23] was -38%. The Activity [24] was 42%, the Activity [25] was 98% and the Activity [26] was 68%. For the same molecule, the Activity [27] was 67%, the Activity [28] was 29% and the Activity [29] was 85%. The Activity [30] was -100%, the GI50 ([31]; read-out: GI50) was 4.06 µM and the CC50 [31, 39] was > 100 µM. The TGI ([31]; read-out: TGI) was 20.5 µM, the GI50 ([31]; read-out: pGI50 (converted)) was 4.07 µM and the CC50 [31, 40] was > 100 µM. The TGI ([31]; read-out: pTGI (converted)) was 20.4 µM, the Activity [32] was 100% and the Activity [33] was 98%. For the same molecule, the Activity [34] was -96%, the GI50 ([35]; read-out: GI50) was 1.58 µM and the CC50 [35, 39] was 6.8 µM. For the same molecule, the TGI ([35]; read-out: TGI) was 3.28 µM, the GI50 ([35]; read-out: pGI50 (converted)) was 1.58 µM and the CC50 [35, 40] was 6.76 µM. The TGI ([35]; read-out: pTGI (converted)) was 3.31 µM, the GI50 ([36]; read-out: GI50) was 2.39 µM and the CC50 [36, 39] was 29.2 µM. The TGI ([36]; read-out: TGI) was 8.5 µM, the GI50 ([36]; read-out: pGI50 (converted)) was 2.4 µM and the CC50 [36, 40] was 29.5 µM. The TGI ([36]; read-out: pTGI (converted)) was 8.51 µM, the Activity [37] was -89% and the Activity [38] was 33%.
